The subject of assay [1] is boar spermatozoa. Briefly: cells. It counts as cell-based. The settings on record: Spermatozoa, 20 min; motile boar sperm, 20 min, 37 °C; read-out: EC50 BSMIM Boar Sperm 20 min.
Assay [2] concerns boar spermatozoa. Briefly: cells. The settings on record: Spermatozoa; motile boar sperm, 2 h, 37 °C; read-out: EC50 SMIDM Boar Sperm 2 h. It counts as cell-based.
Assay [3] has as its system resting boar spermatozoa. Kind of assay: Plasma membrane integrity of resting spermatozoa (SMIDR), calcein-AM + PI. It counts as cell-based. The conditions noted are these: Spermatozoa, 48 h; resting boar sperm, 24 °C, 2 days; read-out: EC50 Lethal Toxicity SMIDR 2 days. As to the method:
The long-term effects of exposure to chaetoglobosin A and to the chaetoglobosin-containing extracts of the Ch. globosum MTAV35 and MTAV37 strains were measured in resting sperm cells exposed at 24 °C for two days. Three criteria were assessed: (1) the motility inhibition of resting boar spermatozoa (BSMIR); (2) the change in mitochondrial membrane potential (ΔΨ) observed using the potentiometric dye JC-1; and (3) the plasma membrane integrity (SMIDR) observed using the viability stain calcein-AM + propidium iodide (PI). […] By contrast, the EC50 concentrations in the SMIDR assays, which measured the lethal damages in plasma membrane after incubation for two days, were >50 times higher (Figure 5 and Table 3).
(§1) The boar sperm cells exposed for 2 days to commercial chaetoglobosin A and the crude extract of MTAV35 and MTAV37 were double-stained with the viability stains PI + calcein–AM, the SMIDR assay, as described earlier. The staining protocol was as follows: 200 μL of extended boar semen containing 27 × 10^6 sperm cells mL^−1 was mixed with 200 μL PBS containing 3 μg mL^−1 calcein-AM and 10 μg mL^−1 PI. The ΔΨm assay monitored the mitochondrial membrane potential changes (ΔΨm) by staining with the lipophilic potentiometric dye JC-1 as described by Mikkola et al. (2015). For the staining with JC-1 (35 µg mL^−1), 200 µL of the sperm cells were shaken and incubated at 37 °C for 5 min. After staining, the cells exposed in the SMIDR and the ΔΨm assays were inspected with fluorescence microscope using 400× magnification (Nikon Eclipse E600, Nikon Corporation, Tokyo Japan) with filters BP 450–490 nm/LP 520. The calcein–AM-stained cells with intact plasma membranes produced green fluorescence, whereas the PI-dyed cells with damaged plasma membranes produced red fluorescence. In JC-1 stained sperm cells, mitochondria with high membrane potential emitted yellow fluorescence, whereas depolarized mitochondria fluoresced green.
(§2) The EC50 concentration in these microscopic assays was defined as the lowest concentration where the ratio of cells similar to those in the solvent control was less than 50%. This EC50 fitted between EC90 and EC10 observed in the microscope calculating ca. 100–120 sperm cells from three microscopic fields. The maximal difference between four parallel tests in each of the two methods was one dilution step. The assays were calibrated with triclosan.

The test system of assay [4] is resting boar spermatozoa. Briefly: Motility inhibition of resting boar spermatozoa (BSMIR). It counts as cell-based. The conditions noted are these: resting boar sperm, 24 °C, 2 days. As for the experimental part:
(§3) Three criteria were assessed: (1) the motility inhibition of resting boar spermatozoa (BSMIR); (2) the change in mitochondrial membrane potential (ΔΨ) observed using the potentiometric dye JC-1; and (3) the plasma membrane integrity (SMIDR) observed using the viability stain calcein-AM + propidium iodide (PI). […] By contrast, the EC50 concentrations in the SMIDR assays, which measured the lethal damages in plasma membrane after incubation for two days, were >50 times higher (Figure 5 and Table 3).
The procedure for the BSMIR assay measuring sublethal toxicity as motility inhibition, i.e., inability to respond to induction of motility in resting sperm cells is described below: The ethanol solutions (0.5–10 μL) were dispensed in 2000 μL of extended boar semen (Figen Ltd., Tuomikylä, Finland, density of 27 × 10^6 sperms mL^−1) incubated at 24 °C, and motility of the sperms was inspected in the phase-contrast microscope (400× magnification) with a heated stage, (Olympus CKX41, Tokyo, Japan; magnification 400×) and an image recording software (Cellsense® standard version 11.0.06, Olympus Soft Imaging Solutions GmbH, Münster, Germany, 2012) as described previously. […] The EC50 was calculated from the equation of the straight line between EC50-40 and EC80-90: Y = −ΔY/ΔX × X + C where Y is the motility closest to 50% of the motility of the solvent control, X is the EC50 concentration and C is a constant between 100% and 60%. All tests were run in triplicates and differences between replicate tests were within one dilution step (2-fold). The sperm assays were calibrated with triclosan and valinomycin.

In assay [5] the test system is resting boar spermatozoa. Kind of assay: Mitochondrial membrane potential (ΔΨm) assay with JC-1 in resting spermatozoa. It counts as cell-based. As to the method:
as §3, §1, §2

Assay [6] deals with resting PK-15 cells. Briefly: Mitochondrial damage test: accelerated glucose consumption and extracellular acidosis. It counts as cell-based, porcine. As for the experimental part:
The mitochondria were depolarized in sperm cells exposed to sublethal concentrations of chaetoglobosin A (Figure 5) and to the chaetoglobosin-containing extracts (Table 3). This observation aroused the suspicion regarding mitochondrial toxicity. The mitochondrial toxicity of the extracts containing chaetoglobosin was assessed by measuring the accelerated glucose consumption in resting PK-15 cells. […] By contrast, the positive controls for mitochondrial toxicity—enniatin B, moniliformin and valinomycin at sublethal concentrations of 1.5, 4 and 5 ng mL^−1, respectively—promoted the acceleration of glycolysis.
The test for mitochondrial damage as indicated by accelerated glucose consumption and extracellular acidosis was described earlier. The PK-15 cells were grown in 8-well flat-bottom chamber glass slides, seeded to a density of 4 × 10^4 cells mL^−1, in the respective medium for 48 h. The twofold serially diluted test substances or the vehicle only was dispensed into the wells. The glucose content of the wells was measured by using a glucose meter (Precision Xceed; Abbott Diabetes Care Ltd., Berkshire, United Kingdom). In wells that received nothing or the vehicle only, the glucose concentration decreased from an initial concentration (0 h) of 12 to 6 mM (24 h), but the pH remained as pH of 7.2. A glucose concentration after 24 h of ≤3 mM indicated excessive glucose consumption. Prior to the measurement of the pH, the chamber slides were transferred into ambient air for 1 h to allow CO2 to evaporate. A pH drop of 0.5 units in the toxin-exposed well compared to the vehicle only was considered proof of acidosis. Mitochondrial depolarization (ΔΨm assay) was read by a fluorescence microscope after 26 h of exposure to the toxicants from the monolayers double stained with the membrane potential-responsive fluorogenic dye JC-1 and with propidium iodide to assess the relaxing of the plasma membrane permeability barrier, similar to what was reported previously for sperm cells (27).

Converted amounts (≈) assume the structure as drawn. Like-named read-outs stand apart in the source and are kept apart here. Where only a bound is given, the exact number is not on record here.

The term EC50 denotes the concentration at which the effect is half-maximal. `C/C1=C\[C@@H](C)C/C=C/[C@H]2[C@@H]3O[C@]3(C)[C@@H](C)[C@H]3[C@H](Cc4c[nH]c5ccccc45)NC(=O)[C@]32C(=O)/C=C/C(=O)[C@@H]1O` [Chaetoglobosin A, chaetoglobosin A]: the EC50 in assay [1] is 1 µg/mL (≈ 1.89 µM); in assay [2] it was 12 µg/mL (≈ 22.7 µM); in assay [5] (Spermatozoa, 48 h, read-out: EC50 Sublethal Toxicity Depletion of ΔΨm 2 days, resting boar sperm, JC-1, 2 days) it was 3 to 4 µg/mL (≈ 5.67 to 7.57 µM). The CC50 in assay [3] is over 20 µg/mL. Also, the “EC50 Sublethal Toxicity BSMIR 2 days” value in assay [4] stood at 1 µg/mL (≈ 1.89 µM). In addition, the “EC50 Sublethal Toxicity Depletion of ΔΨm 2 days” value in assay [5] (resting boar sperm, JC-1, 2 days) worked out at 2 µg/mL. In addition, in assay [6] (PK-15, 1 day), the “EC50 Sublethal Toxicity Acceleration of glycolysis 1 day” value was “None”. For the same molecule, in assay [6] (PK-15, 2 days), the “EC50 Sublethal Toxicity Acidosis 2 days” value is given as “None”.

(Values after PMC7405012, “Detection of Chaetomium globosum, Ch. cochliodes and Ch. rectangulare during the Diversity Tracking of Mycotoxin-Producing Chaetomium-like Isolates Obtained in Buildings in Finland” (Toxins, 2020).)
